Experiment: logP determination by HPLC on a reversed-phase column (C 18), EEC Directive 79/831 Annex V.A8
Assay type: physicochemical
Experimental: The stated logP values were determined in accordance with EEC Directive 79/831 Annex V.A8 by HPLC (high performance liquid chromatography) on a reversed-phase column (C 18). Temperature: 43° C.

[1] = method marker [b], isomer A / isomer B / isomer mixture as noted in the cell
[2] = method marker [a] (footnote not shown), isomer A / isomer B / isomer mixture as noted in the cell

In the case of `C=C(CON=C(C)c1cccc(C)n1)CON=C(C)c1nc(C)cc(OC)n1` (single isomer, unassigned) [Compound 177], the logP [1] was 3.08^[b] (isomer A).
With `CCC(CC)(C(=O)ON=C(C)c1ccc(C)c(C)n1)C(=O)ON=C(C)c1ccc(C)c(C)n1` [compound 675] the logP (method marked [b] in Table 1) was 5.06^[b].
For `C/C(=N\OCC(C)(C)CON)c1cc(C(F)(F)F)cc(C)n1` [XII-16], the logP ([a] acidic range, pH 2.3, 0.1% aqueous phosphoric acid and acetonitrile) was 2.69^[a], the logP ([b] LC-MS, acidic range, pH 2.7, 0.1% aqueous formic acid and acetonitrile) was 2.69^[b] and the logP ([c] LC-MS, neutral range, pH 7.8, 0.001 molar aqueous ammonium bicarbonate solution and acetonitrile) was 3.92^[c].
With `CC(=NOCCCON=C(C)c1ccccn1)c1ccccn1` [compound 31] the logP [1] was 2.67^[b].
With `CCC(=NOCC(C)CON=C(CC)c1ncccc1C)c1ncccc1C` (single isomer, unassigned) [compound 100] the logP [2] was 3.58^[a] (isomer A).
In the case of `Cc1nc(C(N)=NOC/C=C/CON=C(N)c2nc(C)c(Cl)c(C)n2)nc(C)c1Cl` [compound 774], the logP (value marked [b]) was 2.70^[b].
In the case of `CC(=NOCC(C)(C)CON=C(C)c1sc(C)nc1C)c1cccc(C)n1` [compound 546], the logP (method marked [b] in Table 1) was 4.37^[b].
For `CC(=NOc1nc(Cl)nc(ON=C(C)c2cccc(C)n2)c1Cl)c1cccc(C)n1` (single isomer, unassigned) [compound 780], the logP (value marked [b]) was 4.22^[b] and the logP (value marked [c]) was 4.88^[c].
In the case of `CCOC(=O)C(C)(CON=C(C)c1cc(C)cc(C)n1)CON=C(C)c1cc(C)cc(C)n1` (centres unmarked) [compound 855], the logP (value marked [b]) was 2.79^[b] and the logP (value marked [c]) was 5.72^[c].
With `CC(=NOCC1(CON=C(C)c2cccc(C)n2)COC1)c1cccc(C)n1` [compound 19] the logP [1] was 2.45^[b].
With `C=C(CON=C(C)c1cccc(Br)n1)CON=C(C)c1cccc(Br)n1` [compound 150] the logP [1] was 5.96^[b].
For `Cc1cccc(C(=NOCC2(CON=C(c3cccc(C)n3)C3CC3)CC(c3ccccc3Cl)=NO2)C2CC2)n1` (centres unmarked) [compound 648], the logP (method marked [a] in Table 1) was 4.46^[a].
With `CC(=NOCC(C)(C)CON=C(C)c1cccc(C)n1)c1cccc(C(F)(F)F)c1` [compound 410] the logP (value marked [b]) was 6.16^[b].
In the case of `CCCC(=NOCCCON=C(CCC)c1ncccc1C)c1ncccc1C` (single isomer, unassigned) [compound 99], the logP [2] was 4.22^[a] (isomer A).
With `Cc1cccc(C=NOCC(C)CON=Cc2cccc(C)n2)n1` (centres unmarked) [compound 668] the logP (method marked [b] in Table 1) was 2.28^[b].
With `C=C(CON=C(C)c1cccc(C)n1)CON=C(C)c1cccc(C(C)=O)n1` [Compound 117] the logP [1] was 4.43^[b].
In the case of `CC(=NOCCCCCCON=C(C)c1cccc(C)n1)c1ccc2c(c1)OCO2` [compound 390], the logP (value marked [b]) was 5.42^[b].
In the case of `CC(=NOCC(C)CON=C(C)c1nc2ccccc2s1)c1nc2ccccc2s1` (centres unmarked) [Compound 213], the logP [1] was 6.71^[b].
For `Cc1cc(C)nc(C(N)=NOC/C=C\CON=C(N)c2nc(C)cc(C)n2)n1` [compound 773], the logP (value marked [b]) was 1.75^[b].
With `CC(=NOCC(C)(C)CON=C(C)c1cccc(C)n1)c1ccc(C)nc1` [Compound 416] the logP (value marked [b]) was 2.41^[b].
For `CC(=NOCC1(CON=C(C)c2cccc(C)n2)CC(CC(C)C)=NO1)c1cccc(C)n1` (centres unmarked) [compound 599], the logP (method marked [b] in Table 1) was 3.89^[b].
For `CC(=NOCC1(CON=C(C)c2cc(Cl)cc(C)n2)CC1)c1cc(Cl)cc(C)n1` [compound 805], the logP (value marked [a]) was 7.02^[a).
With `CC(=NOCC(C)(C)CON=C(C)c1cccc(C)n1)c1cnccn1` [compound 515] the logP (value marked [b]) was 3.70^[b].
With `CCCc1cccc(C(C)=NOCCCON=C(C)c2cccc(CCC)n2)n1` [Compound 174] the logP [2] was 6.78^[a].
In the case of `C=C(CON=C(C)c1ccc[nH]1)CON=C(C)c1ccc[nH]1` [compound 564], the logP (method marked [b] in Table 1) was 3.23^[b] and the logP (method marked [c] in Table 1) was 3.20^[c].
In the case of `CC=Cc1cc(C)nc(C(C)=NOCC(C)CON=C(C)c2cc(C=CC)cc(C)n2)c1` (centres unmarked) [compound 866], the logP (value marked [a]) was 4.57^[a] and the logP (value marked [b]) was 4.57^[b].
With `CCc1cc(-c2ccccc2)cc(C(C)=NOCC(C)CON=C(C)c2cc(-c3ccccc3)cc(CC)n2)n1` (centres unmarked) [compound 692] the logP (method marked [a] in Table 1) was 7.36^[a].
In the case of `COc1cccc(C(C)=NOCC(C)CON=C(C)c2cccc(C)n2)c1` (centres unmarked) [Compound 495], the logP (value marked [b]) was 4.80^[b].
With `N/C(=N\OCc1ccccc1CO/N=C(\N)c1nc(C2CC2)cc(C2CC2)n1)c1nc(C2CC2)cc(C2CC2)n1` [compound 711] the logP (method marked [b] in Table 1) was 3.85^[b].
In the case of `CC(=NOCC(C)CON=C(C)c1nc(C)cs1)c1nc(C)cs1` (mixture of isomers) [compound 122], the logP [2] was 4.98^[a].
For `CC(=NOCC(C)CON=C(C)c1cccc(C(C)C)n1)c1cccc(C(C)C)n1` (centres unmarked) [Compound 229], the logP [2] was 7.36^[a].
In the case of `CC(=NOCCCCCCON=C(c1cccc(C)n1)C(C)C)c1cccc(C)n1` (single isomer, unassigned) [compound 526], the logP (value marked [b]) was 4.91^b](isomer A).
With `CC(=NOCC(C)CON=C(C)c1cc(C(F)(F)F)cc(C)n1)c1cc(C(F)(F)F)cc(C)n1` (centres unmarked) [compound 869] the logP (value marked [a]) was 7.36^[a], the logP (value marked [b]) was 7.36^[b] and the logP (value marked [c]) was 5.53^[c].
With `CC(=NOC1CCC(ON=C(C)c2cc(C)cc(C)n2)C1)c1cc(C)cc(C)n1` (mixture of isomers) [compound 796] the logP (value marked [a]) was 2.55^[a].
In the case of `C=C(CO/N=C(\N)c1nc(COC)c(C)c(COC)n1)CO/N=C(\N)c1nc(COC)c(C)c(COC)n1` [compound 44], the logP [1] was 1.83^[b].
With `CCCC(=NOCCCON=C(CCC)c1ccc(C)c(C)n1)c1ccc(C)c(C)n1` (mixture of isomers) [Compound 260] the logP (value marked [a]) was 5.22^[a].
For `COc1ccc(C)nc1C(C)=NOCC(C)CON=C(C)c1nc(C)ccc1OC` (centres unmarked) [Compound 251], the logP [1] was 2.04^[b].
With `COCc1nc(/C(N)=N/OCCCCO/N=C(\N)c2nc(COC)c(C)c(COC)n2)nc(COC)c1C` [compound 37] the logP [1] was 1.75^[b].
With `CC(=NOCC(C)CON=C(C)c1cccc(NCC2CC2)n1)c1cccc(NCC2CC2)n1` (centres unmarked) [Compound 791] the logP (value marked [a]) was 1.95^[a].
For `CC(=NOCC(CON=C(C)c1nc(C)ccc1C)c1ccccc1)c1nc(C)ccc1C` (single isomer, unassigned) [compound 754], the logP (method marked [b] in Table 1) was 2.91^[b] and the logP (method marked [c] in Table 1) was 4.59^[c].
With `COc1cc(C)nc(C(C)=NOCC(C)(C)CON=C(C)c2cc(OC)cc(C)n2)c1` [Compound 840] the logP (value marked [a]) was 1.5^[a] and the logP (value marked [c]) was 5.79^[c].
For `CC(=NOCC(C)(C)CON=C(C)c1cccc(-c2ccc(Cl)c(C(F)(F)F)c2)n1)c1cccc(-c2ccc(Cl)c(C(F)(F)F)c2)n1` [compound 577], the logP (method marked [a] in Table 1) was 7.36^[a].
For `C=C(CON=C(C)c1nc(C)ccc1C)CON=C(C)c1nc(C)ccc1C` (single isomer, unassigned) [compound 307], the logP (value marked [b]) was 2.37^[b] (isomer A).
For `CCC(=NOCC1(CON=C(CC)c2cccc(C)n2)CC(C(C)(C)C)=NO1)c1cccc(C)n1` (centres unmarked) [compound 610], the logP (method marked [b] in Table 1) was 5.21^[b].
In the case of `CCC(=NOCCCCCCON=C(C)c1cccc(C)n1)c1ncccc1C` (single isomer, unassigned) [compound 532], the logP (value marked [b]) was 3.99^b] (isomer )A.
With `CC(=NOCC(C)CON=C(CC(C)C)c1ncccc1C)c1cccc(C)n1` (centres unmarked) [compound 422] the logP (value marked [b]) was 4.51^[b].
For `CC(=NOCC(C)(C)CON=C(C)c1ccc2c(n1)CCC2)c1ccc2c(n1)CCC2` [Compound 301], the logP (value marked [a]) was 4.78^[a].
With `CCCc1cccc(C(C)=NOCC(C)CON=C(C)c2cccc(C)n2)n1` (centres unmarked) [Compound 502] the logP (value marked [b]) was 5.84^[b].
For `C=C(CON=C(C)c1ccc(OC)c(OC)c1)CON=C(C)c1cccc(C)n1` [compound 403], the logP (value marked [b]) was 3.75^[b].
With `Cc1cc(C)nc(/C(N)=N/OCc2ccc(CO/N=C(\N)c3cc(C)cc(C)n3)cc2)c1` [compound 733] the logP (method marked [b] in Table 1) was 3,59^[b].
In the case of `C=C(CON=C(C)c1cccc(C)n1)CON=C(C)c1ccccc1Cl` [compound 402], the logP (value marked [b]) was 4.74^[b].
With `Cc1nc(C(N)=NOCC(C)CON=C(N)c2csc(C)n2)cs1` (centres unmarked) [compound 83] the logP [1] was 3.54^[b].
With `CC(=NOCCCON=C(C)c1ccc2c(n1)CCCC2)c1ccc2c(n1)CCCC2` [compound 305] the logP (value marked [a]) was 3.96^[a].
In the case of `CC(=NOCc1cccc(CON=C(C)c2cccc(C)n2)n1)c1cccc(C)n1` [Compound 740], the logP (method marked [b] in Table 1) was 2.49^[b] and the logP (method marked [c] in Table 1) was 4.33^[c].
With `CC(=NOCCCON=C(C)c1cc(C)cc(C)n1)c1cc(C)cc(C)n1` [Compound 224] the logP [2] was 1.65^[a].
For `CCC(=NOCC1(CON=C(CC)c2cccc(C)n2)CC(c2cccc(Cl)c2)=NO1)c1cccc(C)n1` (centres unmarked) [compound 613], the logP (method marked [b] in Table 1) was 5.84^[b].
For `CC(=NOCC(CON=C(C)c1cc(C)cc(C)n1)c1ccccc1)c1cc(C)cc(C)n1` (centres unmarked) [Compound 554], the logP (method marked [b] in Table 1) was 2.96^[b] and the logP (method marked [c] in Table 1) was 6.33^[c].
With `CCC(=NOCC1(CON=C(CC)c2cccc(C)n2)CC(C(C)C)=NO1)c1cccc(C)n1` (centres unmarked) [compound 606] the logP (method marked [b] in Table 1) was 4.67^[b].
With `C=C(CON=C(N)c1ccc(C)c(C)n1)CON=C(Cl)c1cccc(C)n1` [compound 831] the logP (value marked [a]) was 4.06^[a].
With `CC(=NOCC1(CON=C(C)c2cccc(C)n2)CCCC1)c1cccc(C)n1` [Compound 587] the logP (method marked [b] in Table 1) was 5.49^b] and the logP (method marked [c] in Table 1) was 7.33^[c].
With `CC(=NOCC(C)(C)CON=C(C)c1cccc(C)n1)c1ccncc1` [compound 481] the logP (value marked [b]) was 2.41^[b].
For `C=C(CON=C(C)c1cccnc1)CON=C(C)c1cccc(C)n1` [compound 407], the logP (value marked [b]) was 2.15^[b].
With `CCC(=NOCCCON=C(CC)c1ccc(C)c(C)n1)c1ccc(C)c(C)n1` (mixture of isomers) [Compound 236] the logP [2] was 3.80^[a].
With `CC(=NOC(C)C(C)C(C)ON=C(C)c1cccc(C)n1)c1cccc(C)n1` (mixture of isomers) [Compound 743] the logP (method marked [b] in Table 1) was 4.90^[b].
With `CCC(CON=C(C)c1cccc(C)n1)CON=C(C)c1cccc(C)n1` (centres unmarked) [Compound 677] the logP (method marked [b] in Table 1) was 4.38^[b] and the logP (method marked [c] in Table 1) was 5.97^[c].
For `C=CCCC(=NOCCCCCCON=C(C)c1cccc(C)n1)c1ncccc1C` (single isomer, unassigned) [compound 523], the logP (value marked [b]) was 4.91^[b] (isomer A).
With `CC(=NOCC(C)(O)CON=C(C)c1cccc(C)n1)c1cccc(C)n1` (centres unmarked) [Compound 12] the logP [2] was 1.66^[a].
In the case of `CC(=NOCC(C)(C)CON=C(C)c1cccc(Cc2ccccc2)n1)c1cccc(Cc2ccccc2)n1` [Compound 798], the logP (value marked [a]) was 7.36^[b][a] and the logP (value marked [b]) was 7.36^[b].

Reference: patent publication US20100022559A1, “BISOXIMES AS FUNGICIDES” (BAYER CROPSCIENCE AG, priority 2006, published 2010)
